ChEMBL document CHEMBL5614422, “Design, synthesis and biological evaluation of N-salicyloyl tryptamine derivatives as multifunctional neuroprotectants for the treatment of ischemic stroke” (Eur J Med Chem, 2024)

Tests used:
[1] = Cytotoxicity against mouse HT-22 cells assessed as cell viability incubated for 24 hrs by CCK-8 method; type: toxicity, cell-based
[2] = test system: HT-22; assay: Neuroprotective activity against OGD/R induced cell damage in mouse HT-22 cells assessed as cell viability at 10 uM measured after 24 hrs by MTT assay (reference value: 69.01 +/-2.90%); type: functional; details: read-out: Activity
[3] = Cytotoxicity against mouse BV-2 cells assessed as cell viability incubated for 24 hrs by CCK-8 method; type: toxicity, cell-based

| Structure (SMILES) | IC50 at 24 h [1] [µM] | viability at 10 µM [2] [%] | IC50 at 24 h [3] [µM] |
| --- | --- | --- | --- |
| CNc1ccc2[nH]cc(CCNC(=O)c3ccc(C)cc3O)c2c1 | > 100 | 82.4 | 95.4 |
| O=C(NCCc1c[nH]c2ccccc12)c1cccc(Br)c1O | 48.5 | 79.7 | 85.4 |
| COc1ccc2c(CCNC(=O)c3ccc(C)cc3O)c[nH]c2c1 | 102 | 61.5 | > 100 |
| Cc1ccc(C(=O)NCCc2c[nH]c3c(F)cccc23)c(O)c1 | 86.2 | 92.5 | 43 |
| Cc1ccc(C(=O)NCCc2c[nH]c3cc(N(C)C)ccc23)c(O)c1 | 46.4 | 88.9 | 52.4 |
| O=C(NCCc1c[nH]c2ccccc12)c1ccc(Cl)cc1O | 99.7 | 65.8 | 53.4 |
| Cc1ccc(C(=O)NCCc2c[nH]c3cccc(Cl)c23)c(O)c1 | > 100 | 71.1 | 89.1 |
| O=C(NCCc1c[nH]c2ccccc12)c1cc(Br)ccc1O | 64.7 | 73.4 | 68.2 |
| Cc1ccc(C(=O)NCCc2c[nH]c3ccc(Br)cc23)c(O)c1 | 76.1 | 67.8 | 88.6 |
| Cc1ccc(C(=O)NCCc2c[nH]c3c(Cl)cccc23)c(O)c1 | > 100 | 74.8 | 62.2 |
| Cc1ccc(C(=O)NCCc2c[nH]c3cccc(C)c23)c(O)c1 | > 100 | 52.4 | > 100 |
| O=C(NCCc1c[nH]c2ccccc12)c1c(O)cccc1F | > 100 | 87.7 | > 100 |
| COc1cccc(O)c1C(=O)NCCc1c[nH]c2ccccc12 | 8.06 | 59.2 | 21.7 |
| Cc1ccc(C(=O)NCCc2c[nH]c3c(C)cccc23)c(O)c1 | > 100 | 79.5 | 39.1 |
| Cc1ccc(C(=O)NCCc2c[nH]c3cc(Br)ccc23)c(O)c1 | 70.8 | 66.2 | 46.6 |
| COc1cccc(C(=O)NCCc2c[nH]c3ccccc23)c1O | > 100 | 87.8 | > 100 |
| COc1cccc2[nH]cc(CCNC(=O)c3ccc(C)cc3O)c12 | 78.4 | 74 | 96 |
| Cc1ccc(C(=O)NCCc2c[nH]c3cc(Cl)ccc23)c(O)c1 | 63.1 | 64.6 | 52.5 |
| Cc1ccc(C(=O)NCCc2c[nH]c3c(Br)cccc23)c(O)c1 | > 100 | 78.1 | 52.8 |
| Cc1ccc(C(=O)NCCc2c[nH]c3cc(F)ccc23)c(O)c1 | > 100 | 77.7 | > 100 |
| Cc1ccc(C(=O)NCCc2c[nH]c3c(N(C)C)cccc23)c(O)c1 | 59.8 | 87.1 | > 100 |
| Cc1ccc(C(=O)NCCc2c[nH]c3cc4c(cc23)OCO4)c(O)c1 | > 100 | 82.8 | 98.8 |
| O=C(NCCc1c[nH]c2ccccc12)c1ccc(Br)cc1O | > 100 | 76.2 | > 100 |
| Cc1cccc(O)c1C(=O)NCCc1c[nH]c2ccccc12 | 60 | 88.4 | 43.6 |
| O=C(NCCc1c[nH]c2ccccc12)c1cc(Cl)ccc1O | > 100 | 77.2 | > 100 |
| COc1ccc(C(=O)NCCc2c[nH]c3ccccc23)c(O)c1 | 52.6 | 86.9 | 68 |
| Cc1ccc(C(=O)NCCc2c[nH]c3ccc(Cl)cc23)c(O)c1 | 61.2 | 76 | 80.5 |
| Cc1cccc(C(=O)NCCc2c[nH]c3ccccc23)c1O | 51.5 | 87.2 | 36.1 |
